Assay results as given in ChEMBL document CHEMBL3639274, “Compounds for the treatment of neurodegenerative diseases” (2015).

biological target: Microtubule-associated protein tau (Homo sapiens, UniProt P10636); test: Thio S Fluorometry Assay: The Thio S fluorometry assay as a primary screening method to identify tau protein aggregation inhibitors from our small molecule library. Aggregated tau fibrils were prepared in the presence of equimolar ratios of TauRD and heparin (10 μM each) in 20 mM Na-phosphate buffer, pH7.4. The reaction mixture was incubated at 37° C. with shaking (800-1000 rpm) for 22-24 hr (or for 3 days). In the Thio S inhibition assays, test compounds at 0, 0.1, 1, 10 and 100 μM were added at time 0 into the reaction containing TauRD and heparin. The same reaction mixture (+/− increasing concentrations of compounds) but without TauRD were also set up in parallel to serve as background controls. For all test compounds background fluorescence readings were very low, usually <5% of those of the TauRD-containing wells. For each compound, the IC50 was calculated using Prism version 5 software (GraphPad Software) by nonlinear regression [(Log [inhibitor] vs. normalized response; variable slope)].
Sequence (P10636 whole entry): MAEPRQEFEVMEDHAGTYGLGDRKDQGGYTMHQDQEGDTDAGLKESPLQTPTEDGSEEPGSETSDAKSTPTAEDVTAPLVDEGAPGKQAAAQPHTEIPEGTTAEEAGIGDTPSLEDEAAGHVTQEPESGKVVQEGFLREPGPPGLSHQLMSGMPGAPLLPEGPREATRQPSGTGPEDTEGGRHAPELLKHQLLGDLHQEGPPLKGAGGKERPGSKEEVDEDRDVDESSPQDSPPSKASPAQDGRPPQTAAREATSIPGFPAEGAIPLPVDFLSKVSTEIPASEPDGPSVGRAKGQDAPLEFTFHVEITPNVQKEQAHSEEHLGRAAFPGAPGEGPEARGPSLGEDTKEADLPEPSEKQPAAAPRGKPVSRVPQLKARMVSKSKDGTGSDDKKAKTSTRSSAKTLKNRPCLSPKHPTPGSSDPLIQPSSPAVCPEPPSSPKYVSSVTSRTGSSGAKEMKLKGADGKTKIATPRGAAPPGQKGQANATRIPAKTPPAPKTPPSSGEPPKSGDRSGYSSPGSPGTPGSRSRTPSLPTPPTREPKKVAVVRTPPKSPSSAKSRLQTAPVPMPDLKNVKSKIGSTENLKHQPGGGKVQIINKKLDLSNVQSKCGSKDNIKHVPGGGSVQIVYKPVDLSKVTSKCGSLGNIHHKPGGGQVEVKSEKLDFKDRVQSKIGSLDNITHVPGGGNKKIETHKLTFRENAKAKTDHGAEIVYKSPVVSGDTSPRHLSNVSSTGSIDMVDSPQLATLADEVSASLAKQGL

| SMILES | IC50 |
| --- | --- |
| Oc1ccc(-c2cnc(-c3ccc(O)c(O)c3)o2)cc1O | 117 µM |
| Oc1ccc(-c2nsc(-c3ccc(O)c(O)c3)n2)cc1O | 10.2 µM |
| Oc1ccc(-c2cn(-c3ccc(O)c(O)c3)nn2)cc1O | 34 µM |
| Oc1ccc(-c2nc3cc(O)c(O)cc3o2)cc1O | 7.34 µM |
| Oc1ccc(-c2cc(Br)c(-c3ccc(O)c(O)c3)s2)cc1O | 211 µM |
| CC(=O)N1N=C(c2ccc(O)c(O)c2)CC1c1ccc(O)c(O)c1 (stereo not drawn) | 78.5 µM |
| O=C(/C=C/c1cc(O)c(O)cc1Br)c1ccc(O)c(O)c1 | 9.02 µM |
| O=C(/C=C/c1ccc(O)c(O)c1)c1ccc(O)c(O)c1 | 21.4 µM |
| Oc1ccc(-c2nnc(-c3ccc(O)c(O)c3)o2)cc1O | 3940 µM |
| Oc1ccc(Cc2cc(O)c(O)cc2O)cc1O | 5.2 µM |
| O=C(/C=C/c1ccc(O)c(O)c1)c1cc(O)c(O)cc1Br | 21.2 µM |
| O=[N+]([O-])c1cc(-c2ccc(O)c(O)c2)ccc1-c1ccc(O)c(O)c1 | 24.7 µM |

biological target: Alpha-synuclein (Homo sapiens, UniProt P37840); test: In order to assess relative binding affinities of the test compounds for aggregated α-synuclein, competition assays were set up with a radiolabeled molecule already known to bind to α-synuclein fibrils and non-radiolabeled test compounds. In order to induce its aggregation, α-synuclein was incubated in phosphate buffered saline (PBS, pH 7.4) at 37° C. for three days with shaking (1,400 rpm). Competitive binding assays were carried out in 12×75 mm borosilicate glass tubes.

| SMILES | Ki |
| --- | --- |
| Oc1ccc(-c2cnc(-c3ccc(O)c(O)c3)o2)cc1O | 0.659 µM |
